Assay results published in patent publication US20230364194A1, “GLP-1R/GCGR Dual Target Agonist Polypeptide Derivative for Treatment of Hepatic Fibrosis Associated with Viral Hepatitis” (Shenzhen Turier Biotech. Co., Ltd., priority 2020, published 2023).
Starred links: 1 amine or outer side, 2 acyl side, 3 side chain; linkers in the order of their positions; H or OH if unused. Non-standard residues stand in square brackets, D forms with d. Groups on a side chain read outwards from the residue. Primed or numbered codes have the meaning given here. No end group written: not given here. *: point of attachment. C18 diacid = O=C(O)CCCCCCCCCCCCCCCCC(=O)*; γGlu = O=C(O)[C@H](CCC(=O)[*:2])N[*:1]; Stearoyl = CCCCCCCCCCCCCCCCCC(=O)*; Palmitoyl = CCCCCCCCCCCCCCCC(=O)*; PEG2′ = not defined here; Aib = CC(C)(N)C(=O)O

Key:
[1] = system: Hepatic stellate cell strain LX-2; assay: In vitro effect on expression of LX-2 cell activation marker α-SMA (Western Blot, β-actin reference); assay type: cell-based; conditions: LX-2 cells, 10.0 uM, 48 hours, negative control = 100%
Text: Hepatic stellate cell strain LX-2 (from China Center for Type Culture Collection, Shanghai) was selected to study and observe the effects of polypeptide compounds 1-25 on the expression level of LX-2 cell activation marker α-smooth muscle actin (α-SMA). The control group was given the same volume of Dulbecco’s modified Eagle medium (DMEM) (from Gibco, United States), and β-actin (from TransGen Biotech) as the endogenous reference, wherein, α-SMA is a symbolic feature that distinguishes […] from myofibroblasts.
Hepatic stellate cell LX-2 was laid on 35 mm cell culture plate, cultured with DMEM (high glucose)+10% FBS+1% double-antibody culture medium (Thermo Fisher), placed overnight when the cells grew to 70% convergence at 37° C. under the condition of 5% CO2 without serum, and treated with the above GLP-1R/GCGR dual target agonist polypeptide derivatives (namely, polypeptide compounds 1-25) (dissolved in PBS) for 48 hours from the next morning to extract cell protein, and then Western Blot was performed with β-actin as endogenous reference to analyze the expression levels of α-SMA and β-actin by gray-scale analysis using Image J 1.50i. PBS with the same volume as that in experimental group was added in negative control.
The above polypeptide compounds 1-25 with a concentration of 10.0 µM were added, showing that they could reduce the expression of α-SMA at the concentration of 10.0 µM; and the negative control had no effect on the expression of α-SMA (referring to Table 2).
The integrated gray scale of α-SMA/β-actin in the negative control group was considered to be 100% to analyze the in vitro inhibitory activity on hepatic fibrosis by tested polypeptides.

[2] = system: HBV-infected humanized mouse liver; assay: Hepatic fibrosis of HBV-infected humanized mouse (hepatitis virus-infected humanized mouse fibrosis model); assay type: in vivo; conditions: 40 ug/Kg, intraperitoneal injection, once every other day for 3 weeks; for Accumulation of collagen fibers (FG/SR staining of liver) / Hepatic fibrosis and inflammation level (FG/SR and H&E staining of liver): compared with control group without administration; for Serum ALT: versus before administration
Procedure: In order to study the effect of the polypeptide compounds of the present invention in hepatic fibrosis associated with viral hepatitis, the polypeptide compounds of the present invention were used for hepatic fibrosis of HBV-infected humanized mouse. […] The specific steps are shown as follows:
Forty newborn NOD-scid IL-2Rγ-/- (NIKO) mice were bred.
These mice were injected with human stem cells for humanization (2 weeks).
Referring to FIG. 10, blood samples were taken to determine the humanization level by flow cytometry. All the mice used in the experiment expressed humanization according to in vivo concentrations of CD4 and CD8.
The mice were divided into 8 groups, fed with high-fat diet and infected with HBV (1 week).
The development of fibrosis in mice was monitored (8-10 weeks).
The polypeptide compounds 2, 5, 11, 15, 20, 23 and 25 were selected, which were stored at -20° C.
The above 40 mice were divided into 8 groups for injection treatment, with grouping and injection administration as follows: blank model control group (CTR), physiological saline, intraperitoneal injection, n=5. • 1) Administration group, polypeptide compound 2, 40 ug/Kg, intraperitoneal injection, n=5. • 2) Administration group, polypeptide compound 5, 40 ug/Kg, intraperitoneal injection, n=5. • 3) Administration group, polypeptide compound 11, 40 ug/Kg, intraperitoneal injection, n=5. • 4) Administration group, polypeptide compound 15, 40 ug/Kg, intraperitoneal injection, n=5. • 5) Administration group, polypeptide compound 20, 40 ug/Kg, intraperitoneal injection, n=5. • 6) Administration group, polypeptide compound 23, 40 ug/Kg, intraperitoneal injection, n=5. • 7) Administration group, polypeptide compound 25, 40 ug/Kg, intraperitoneal injection, n=5.
They were injected once every other day for 3 weeks.
After 3 weeks of administration, the mice were sacrificed to take samples for subsequent bioassay experiments. The serum samples from the mice were used for ALT and human IFNγ tests. Paraffin sections were prepared from partial liver tissues of the mice and stained with hematoxylin-eosin (H&E), […]/Sirius red (FG/SR) and immunohistochemical fluorescence (α-SMA), and statistics were made with Image-pro plus, Graph pad and similar software.
In the HBV induced hepatic fibrosis model, its characteristics are: inflammatory cell infiltration around the central vein area, hydropic degeneration of hepatocytes, and increased accumulation of collagen fibers in the portal area and the hepatic interlobular septum. After 3 weeks of administration, the mice were sacrificed to take samples. Blood was taken from the retrobulbar vein for detection of serological indicators, and liver tissues were taken for pathological analysis.

Row | Substance | Relative expression of α-SMA (α-SMA/β-actin, %) [1] [%] | α-SMA expression in liver tissues (IF staining) [2] | Accumulation of collagen fibers (FG/SR staining of liver) [2] | Hepatic fibrosis and inflammation level (FG/SR and H&E staining of liver) [2] | Serum ALT [2]
1 | His-(D-Ser)-Gln-Gly-Thr-Phe-Thr-Ser-Asp-Tyr-Ser-Lys-Tyr-Leu-Asp-Lys(PEG2-PEG2-yGlu-CO(CH2)14CH3)-Arg-Arg-Ala- Gln-Asp-Phe-Val-Gln-Trp-Leu-Nle-Asn-Thr-Gly-Gly-Pro-Ser-Ser-Gly-Ala-Pro-Pro-Pro-Ser-NH2 (HXQGTFTSDYSKYLDKRRAQDFVQWLXNTGGPSSGAPPPS; D-Ser; Nle; PEG2-PEG2-γGlu-palmitoyl lipidation; C-terminal amide; (2)..(2) Xaa=D-Ser; (16)..(16) A side chain of Lys is linked to -PEG2-PEG2-AGlu-CO(CH2)14CH3; (27)..(27) Xaa=Nle) [Compound 20] | 32.58 | significantly inhibited | significantly inhibited the accumulation of collagen fibers | decreased the hepatic fibrosis and inflammation level | decreased from that before administration
2 | His-(D-Ser)-Gln-Gly-Thr-Phe-Thr-Ser-Asp-Tyr-Ser-Lys-Tyr-Leu-Asp-Lys(PEG2-PEG2-γGlu-CO(CH2)14CH3)-Arg-Arg-Ala- Gln-Asp-Phe-Val-Gln-Trp-Leu-Leu-Asn-Thr-Gly-Gly-Pro-Ser-Ser-Gly-Ala-Pro-Pro-Pro-Ser-NH2 (H[dS]QGTFTSDYSKYLDK([PEG2′-PEG2′-γGlu-Palmitoyl])RRAQDFVQWLLNTGGPSSGAPPPS-NH2) [Compound 23] | 36.15 | significantly inhibited | significantly inhibited the accumulation of collagen fibers | decreased the hepatic fibrosis and inflammation level | decreased from that before administration
3 | His-Aib-Gln-Gly-Thr-Phe-Thr-Ser-Asp-Lys(PEG2-PEG2-yGlu- CO(CH2)16CO2H)-Ser-Lys-Tyr-Leu-Asp-Glu-Arg-Arg-Ala- Gln-Asp-Phe-Val-Gln-Trp-Leu-Leu-Asp-Gly-Gly-Gly-Pro-Ser-Ser-Gly-Ala-Pro-Pro-Pro-Ser-NH2 (H[Aib]QGTFTSDK([PEG2′-PEG2′-γGlu-C18 diacid])SKYLDERRAQDFVQWLLDGGGPSSGAPPPS-NH2) [Compound 5] | 37.04 | significantly inhibited | significantly inhibited the accumulation of collagen fibers | decreased the hepatic fibrosis and inflammation level | decreased from that before administration
4 | His-(D-Ser)-Gln-Gly-Thr-Phe-Thr-Ser-Asp-Tyr-Ser-Lys-Tyr-Leu-Asp-Glu-Lys(PEG2-PEG2-γGlu-CO(CH2)16CO2H)-Arg- Ala-Gln-Asp-Phe-Val-Gln-Trp-Leu-Met-Asn-Thr-Gly-Gly-Pro-Ser-Ser-Gly-Ala-Pro-Pro-Pro-Ser-NH2 (H[dS]QGTFTSDYSKYLDEK([PEG2′-PEG2′-γGlu-C18 diacid])RAQDFVQWLMNTGGPSSGAPPPS-NH2) [Compound 2] | 34.65 | significantly inhibited | significantly inhibited the accumulation of collagen fibers | decreased the hepatic fibrosis and inflammation level | decreased from that before administration
5 | His-(D-Ser)-Gln-Gly-Thr-Phe-Thr-Ser-Asp-Tyr-Ser-Lys-Tyr-Leu-Asp-Lys(PEG2-PEG2-CO(CH2)14CH3)-Arg-Arg-Ala-Gln- Asp-Phe-Val-Gln-Trp-Leu-Leu-Asn-Thr-Gly-Gly-Pro-Ser-Ser-Gly-Ala-Pro-Pro-Pro-Ser-NH2 (H[dS]QGTFTSDYSKYLDK([PEG2′-PEG2′-Palmitoyl])RRAQDFVQWLLNTGGPSSGAPPPS-NH2) [Compound 25] | 39.17 | significantly inhibited | significantly inhibited the accumulation of collagen fibers | decreased the hepatic fibrosis and inflammation level | decreased from that before administration
6 | His-(D-Ser)-Gln-Gly-Thr-Phe-Thr-Ser-Asp-Tyr-Ser-Lys-Tyr-Leu-Asp-Glu-Lys-Ala-Ala-Lys(PEG2-PEG2-γGlu- CO(CH2)14CH3)-Glu-Phe-Ile-Glu-Trp-Leu-Leu-Asn-Gly-Gly- Gly-Pro-Ser-Ser-Gly-Ala-Pro-Pro-Pro-Ser-NH2 (H[dS]QGTFTSDYSKYLDEKAAK([PEG2′-PEG2′-γGlu-Palmitoyl])EFIEWLLNGGGPSSGAPPPS-NH2) [Compound 15] | 37.25 | significantly inhibited | significantly inhibited the accumulation of collagen fibers | decreased the hepatic fibrosis and inflammation level | decreased from that before administration
7 | His-(D-Ser)-Gln-Gly-Thr-Phe-Thr-Ser-Asp-Tyr-Ser-Lys-Tyr-Leu-Asp-Glu-Lys-Ala-Ala-Lys(PEG2-PEG2-yGlu- CO(CH2)16CH3)-Glu-Phe-Ile-Glu-Trp-Leu-Leu-Arg-Gly-Gly- Gly-Pro-Ser-Ser-Gly-Ala-Pro-Pro-Pro-Ser-NH2 (H[dS]QGTFTSDYSKYLDEKAAK([PEG2′-PEG2′-γGlu-Stearoyl])EFIEWLLRGGGPSSGAPPPS-NH2) [Compound 11] | 35.78 | significantly inhibited | significantly inhibited the accumulation of collagen fibers | decreased the hepatic fibrosis and inflammation level | decreased from that before administration
